Experimental data from patent US9024017B2, “Octahydro-cyclopentapyrrolyl antagonists of CCR2” (Janssen Pharmaceutica NV, priority 2012, dated 2015).

biological target: T1, CCR2 (Homo sapiens, UniProt P41597); assay: MCP-1 Receptor Binding Assay in THP-1 Cells; settings: read-out: MCP1B_v3 IC50
T1 construct: host or cells: THP-1 (human monocytic cell line)
Method: Compounds of the invention were subjected to various representative biological tests. […] MCP-1 Receptor Binding Assay in THP-1 Cells Human monocytic cell line THP-1 cells were obtained from American Type Culture Collection (Manassas, Va., USA). The THP-1 cells were grown in RPMI-1640 (RPMI: Roswell Park Memorial Institute Medium-cell culture growth media) supplemented with 10% fetal bovine serum in a humidified 5% CO2 atmosphere at 37° C. The cell density was maintained between […].
THP-1 (cells were incubated with 0.5 nM ^125I labeled MCP-1 (Perkin-Elmer Life Sciences, Inc. Boston, Mass.) in the presence of varying concentrations of either unlabeled MCP-1 (R & D Systems, Minneapolis, Minn.) or test compound for 2 hours at 30° C. in a 96 well plate. Cells were then harvested onto a filter plate, dried, and 20 μL of Microscint 20 was added to each well. Plates were counted in a TopCount NXT, Microplate Scintillation & Luminescence Counter (Perkin-Elmer Life Sciences, Inc. Boston, Mass.). Blank values (buffer only) were subtracted from all values and drug treated values were compared to vehicle treated values. 1 μM cold MCP-1 was used for nonspecific binding.

T1 sequence (P41597 whole entry): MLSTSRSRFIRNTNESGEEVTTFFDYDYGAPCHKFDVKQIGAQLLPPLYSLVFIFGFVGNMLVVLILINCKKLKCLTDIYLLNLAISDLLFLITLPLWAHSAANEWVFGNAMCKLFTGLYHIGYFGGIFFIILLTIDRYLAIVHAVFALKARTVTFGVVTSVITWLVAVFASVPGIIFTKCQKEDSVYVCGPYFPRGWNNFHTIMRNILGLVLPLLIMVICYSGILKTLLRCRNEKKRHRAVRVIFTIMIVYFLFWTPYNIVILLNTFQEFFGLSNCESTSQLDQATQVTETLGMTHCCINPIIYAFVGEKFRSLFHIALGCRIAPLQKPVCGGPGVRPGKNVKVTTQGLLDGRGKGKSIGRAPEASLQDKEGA

Row | IC50 [nM] | SMILES
1 | 270 | COC1COCCC1N[C@@H]1C[C@H]2CN(c3nc(C)no3)C[C@@]2(C(=O)N2CCc3ncc(C(F)(F)F)cc3C2)C1 (relative stereo) [Example 111, ((3aR,5R,6aR)-5-(((3S*,4S*)-3-Methoxytetrahydro-2H-pyran-4-yl)amino)-2-(3-methyl-1,2,4-oxadiazol-5-yl)octahydrocyclopenta[c]pyrrol-3a-yl)(3-(trifluoromethyl)-7,8-dihydro-1,6-naphthyridin-6(5H)-yl)methanone]
2 | 50 | COC1COCCC1N[C@@H]1C[C@H]2CN(C(=O)OCCNC(C)=O)C[C@@]2(C(=O)N2CCc3ncc(C(F)(F)F)cc3C2)C1 (relative stereo) [Example 63, (3aR,5R,6aR)-2-Acetamidoethyl 5-(((3S*,4S*)-3-methoxytetrahydro-2H-pyran-4-yl)amino)-3a-(3-(trifluoromethyl)-5,6,7,8-tetrahydro-1,6-naphthyridine-6-carbonyl)hexahydrocyclopenta[c]pyrrole-2(1H)-carboxylate]
3 | 190 | CCOC1COCCC1N[C@@H]1C[C@H]2CN(C(N)=O)C[C@@]2(C(=O)N2CCc3ncc(C(F)(F)F)cc3C2)C1 (relative stereo) [Example 9, (3aR,5R,6aR)-5-(((3S*,4S*)-3-Ethoxytetrahydro-2H-pyran-4-yl)amino)-3a-(3-(trifluoromethyl)-5,6,7,8-tetrahydro-1,6-naphthyridine-6-carbonyl)hexahydrocyclopenta-[c]pyrrole-2(1H)-carboxamide]
4 | 220 | COC1COCCC1N[C@@H]1C[C@H]2CN(C(=O)OCc3cccc(C#N)c3)C[C@@]2(C(=O)N2CCc3ncc(C(F)(F)F)cc3C2)C1 (stereo partly drawn) [Example 59, (3aR,5R,6aR)-3-Cyanobenzyl 5-((3-methoxytetrahydro-2H-pyran-4-yl)amino)-3a-(3-(trifluoromethyl)-5,6,7,8-tetrahydro-1,6-naphthyridine-6-carbonyl)hexahydrocyclopenta-[c]pyrrole-2(1H)-carboxylate]
5 | 30 | COC1COCCC1N[C@@H]1C[C@H]2CN(C(=O)OCCN3CCCC3)C[C@@]2(C(=O)N2CCc3ccc(C(F)(F)F)cc3C2)C1 (relative stereo) [Example 46, (3aR,5R,6aR)-2-(Pyrrolidin-1-yl)ethyl 5-(((3S*,4S*)-3-methoxytetrahydro-2H-pyran-4-yl)amino)-3a-(7-(trifluoromethyl)-1,2,3,4-tetrahydroisoquinoline-2-carbonyl)hexahydrocyclopenta[c]pyrrole-2(1H)-carboxylate]
6 | 150 | COC1COCCC1N[C@@H]1C[C@H]2CN(c3nccs3)C[C@@]2(C(=O)N2CCc3ncc(C(F)(F)F)cc3C2)C1 (relative stereo) [Example 110, ((3aR,5R,6aR)-5-(((3S*,4S*)-3-Methoxytetrahydro-2H-pyran-4-yl)amino)-2-(thiazol-2-yl)octahydrocyclopenta[c]pyrrol-3a-yl)(3-(trifluoromethyl)-7,8-dihydro-1,6-naphthyridin-6(5H)-yl)methanone]
7 | 10 | CCN(CC)CCOC(=O)N1C[C@@H]2C[C@@H](NC3CCOCC3OC)C[C@]2(C(=O)N2CCc3ccc(C(F)(F)F)cc3C2)C1 (relative stereo) [Example 41, (3aR,5R,6aR)-2-(Diethylamino)ethyl 5-(((3S*,4S*)-3-methoxytetrahydro-2H-pyran-4-yl)amino)-3a-(7-(trifluoromethyl)-1,2,3,4-tetrahydroisoquinoline-2-carbonyl)hexahydrocyclopenta[c]pyrrole-2(1H)-carboxylate]
8 | 10 | CO[C@@H]1COCC[C@@H]1N[C@@H]1C[C@H]2CN(C(=O)/C=C/c3ccc(C(=O)O)cc3)C[C@@]2(C(=O)N2CCc3ccc(C(F)(F)F)cc3C2)C1 (relative stereo) [Example 89, 4-((E)-3-((3aR,5R,6aR)-5-(((3S*,4S*)-3-methoxytetrahydro-2H-pyran-4-yl)amino)-3a-(7-(trifluoromethyl)-1,2,3,4-tetrahydroisoquinoline-2-carbonyl)hexahydrocyclopenta-[c]pyrrol-2(1H)-yl)-3-oxoprop-1-en-1-yl)benzoic acid]
9 | 1350 | CO[C@@H]1COCC[C@H]1N[C@@H]1C[C@H]2CN(C(N)=O)C[C@@]2(C(=O)N2CCc3ncc(C(F)(F)F)cc3C2)C1 (relative stereo) [Example 5, (3aR,5R,6aR)-5-(((3S*,4R*)-(3-Methoxytetrahydro-2H-pyran-4-yl)amino)-3a-(3-(trifluoromethyl)-5,6,7,8-tetrahydro-1,6-naphthyridine-6-carbonyl)hexahydrocyclopenta-[c]pyrrole-2(1H)-carboxamide]
10 | 370 | COC1COCCC1N[C@@H]1C[C@H]2CN(Cc3ccccc3)C[C@@]2(C(=O)N2CCc3ncc(C(F)(F)F)cc3C2)C1 (relative stereo) [Example 101, ((3aR,5R,6aR)-2-Benzyl-5-(((3S*,4S*)-3-methoxytetrahydro-2H-pyran-4-yl)amino)octahydrocyclopenta[c]pyrrol-3a-yl)(3-(trifluoromethyl)-7,8-dihydro-1,6-naphthyridin-6(5H)-yl)methanone]
11 | 120 | COC1COCCC1N[C@@H]1C[C@H]2CN(C3CCOCC3OC)C[C@@]2(C(=O)N2CCc3ccc(C(F)(F)F)cc3C2)C1 (relative stereo) [Example 105, ((3aR,5R,6aR)-2-((3S*,4S*)-3-Methoxytetrahydro-2H-pyran-4-yl)-5-(((3S*,4S*)-3-methoxytetrahydro-2H-pyran-4-yl)amino)octahydrocyclopenta[c]pyrrol-3a-yl)(7-(trifluoromethyl)-3,4-dihydroisoquinolin-2(1H)-yl)methanone]
12 | 30 | COC1COCCC1N[C@@H]1C[C@H]2CN(C(=O)OCCC(C)(C)O)C[C@@]2(C(=O)N2CCc3ccc(OC(F)(F)F)cc3C2)C1 (relative stereo) [Example 50, (3aR,5R,6aR)-3-Hydroxy-3-methylbutyl 5-(((3S*,4S*)-3-methoxytetrahydro-2H-pyran-4-yl)amino)-3a-(7-(trifluoromethoxy)-1,2,3,4-tetrahydroisoquinoline-2-carbonyl)hexahydrocyclopenta[c]pyrrole-2(1H)-carboxylate]
13 | 80 | CO[C@H]1COCC[C@H]1N[C@@H]1C[C@H]2CN(C(=O)OCCC3CCOCC3)C[C@@]2(C(=O)N2CCc3ncc(C(F)(F)F)cc3C2)C1 [Example 44, (3aR,5R,6aR)-2-(Tetrahydro-2H-pyran-4-yl)ethyl 5-(((3R,4R)-3-methoxytetrahydro-2H-pyran-4-yl)amino)-3a-(3-(trifluoromethyl)-5,6,7,8-tetrahydro-1,6-naphthyridine-6-carbonyl)hexahydrocyclopenta[c]pyrrole-2(1H)-carboxylate]
14 | 80 | COC1COCCC1N[C@@H]1C[C@H]2CN(C(=S)n3ccnc3)C[C@@]2(C(=O)N2CCc3ncc(C(F)(F)F)cc3C2)C1 (relative stereo) [Example 31, ((3aR,5R,6aR)-2-(1H-Imidazole-1-carbonothioyl)-5-(((3S*,4S*)-3-methoxytetrahydro-2H-pyran-4-yl)amino)octahydrocyclopenta[c]pyrrol-3a-yl)(3-(trifluoromethyl)-7,8-dihydro-1,6-naphthyridin-6(5H)-yl)methanone]
15 | 22800 | COC1COCCC1N[C@@H]1C[C@H]2C(=O)NC[C@@]2(C(=O)N2CCc3ncc(C(F)(F)F)cc3C2)C1 (relative stereo) [Example 118, (3aR,5R,6aR)-5-(((3S*,4S*)-3-Methoxytetrahydro-2H-pyran-4-yl)amino)-3a-(3-(trifluoromethyl)-5,6,7,8-tetrahydro-1,6-naphthyridine-6-carbonyl)hexahydro-cyclopenta[c]pyrrol-(2H)-one]
16 | 130 | COC1COCCC1N[C@@H]1C[C@H]2CN(C(=O)COc3ccccc3)C[C@@]2(C(=O)N2CCc3ncc(C(F)(F)F)cc3C2)C1 (relative stereo) [Example 68, 1-((3aR,5R,6aR)-5-(((3S*,4S*)-3-Methoxytetrahydro-2H-pyran-4-yl)amino)-3a-(3-(trifluoromethyl)-5,6,7,8-tetrahydro-1,6-naphthyridine-6-carbonyl)hexahydrocyclopenta-[c]pyrrol-2(1H)-yl)-2-phenoxyethanone]
17 | 50 | COC1COCCC1N[C@@H]1C[C@H]2CN(C(=O)n3ccnc3)C[C@@]2(C(=O)N2CCc3ccc(C(F)(F)F)cc3C2)C1 (relative stereo) [Example 24, ((3aR,5R,6aR)-2-(1H-Imidazole-1-carbonyl)-5-(((3S*,4S*)-3-methoxytetrahydro-2H-pyran-4-yl)amino)octahydrocyclopenta[c]pyrrol-3a-yl)(7-(trifluoromethyl)-3,4-dihydroisoquinolin-2(1H)-yl)methanone]
18 | 40 | COC1COCCC1N[C@@H]1C[C@H]2CN(C(=O)c3nccs3)C[C@@]2(C(=O)N2CCc3ncc(C(F)(F)F)cc3C2)C1 (relative stereo) [Example 81, ((3aR,5R,6aR)-5-(((3S*,4S*)-3-Methoxytetrahydro-2H-pyran-4-yl)amino)-2-(thiazole-2-carbonyl)octahydrocyclopenta[c]pyrrol-3a-yl)(3-(trifluoromethyl)-7,8-dihydro-1,6-naphthyridin-6(5H)-yl)methanone]
19 | 30 | CO[C@@H]1COCC[C@@H]1N[C@@H]1C[C@H]2CN(C(=O)OCCC3CCOCC3)C[C@@]2(C(=O)N2CCc3ncc(C(F)(F)F)cc3C2)C1 [Example 43, (3aR,5R,6aR)-2-(Tetrahydro-2H-pyran-4-yl)ethyl 5-(((3S,4S)-3-methoxytetrahydro-2H-pyran-4-yl)amino)-3a-(3-(trifluoromethyl)-5,6,7,8-tetrahydro-1,6-naphthyridine-6-carbonyl)hexahydrocyclopenta[c]pyrrole-2(1H)-carboxylate]
